DC50 and Emax data for ten compounds are collected here from ChEMBL document CHEMBL4387721, “Proteolysis targeting chimeras (PROTACs) in 'beyond rule-of-five' chemical space: Recent progress and future challenges” (Bioorg Med Chem Lett, 2019).

Holding throughout (type): cell-based
The target of experiment [1] is T1, Protein cereblon/Cyclin-dependent kinase 9 (Homo sapiens, UniProt P50750+Q96SW2). The experiment can be described thus: Protac activity at CRBN/CDK9 in human HCT116 cells assessed as induction of CDK9 protein degradation after 6 hrs by Western blot analysis. In general terms: In western blotting, separated proteins are transferred to a membrane and probed.
Target sequence in this assay (P50750 whole entry): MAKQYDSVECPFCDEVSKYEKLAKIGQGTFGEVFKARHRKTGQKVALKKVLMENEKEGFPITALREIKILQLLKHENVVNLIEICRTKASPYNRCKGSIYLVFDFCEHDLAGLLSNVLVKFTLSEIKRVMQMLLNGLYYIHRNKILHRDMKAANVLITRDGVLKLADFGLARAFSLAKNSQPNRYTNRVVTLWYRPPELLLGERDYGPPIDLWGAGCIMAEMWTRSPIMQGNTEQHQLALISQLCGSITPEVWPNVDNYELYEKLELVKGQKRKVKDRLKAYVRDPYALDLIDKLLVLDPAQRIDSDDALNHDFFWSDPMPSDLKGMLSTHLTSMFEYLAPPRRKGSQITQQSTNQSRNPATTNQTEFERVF
Target sequence in this assay (Q96SW2 whole entry): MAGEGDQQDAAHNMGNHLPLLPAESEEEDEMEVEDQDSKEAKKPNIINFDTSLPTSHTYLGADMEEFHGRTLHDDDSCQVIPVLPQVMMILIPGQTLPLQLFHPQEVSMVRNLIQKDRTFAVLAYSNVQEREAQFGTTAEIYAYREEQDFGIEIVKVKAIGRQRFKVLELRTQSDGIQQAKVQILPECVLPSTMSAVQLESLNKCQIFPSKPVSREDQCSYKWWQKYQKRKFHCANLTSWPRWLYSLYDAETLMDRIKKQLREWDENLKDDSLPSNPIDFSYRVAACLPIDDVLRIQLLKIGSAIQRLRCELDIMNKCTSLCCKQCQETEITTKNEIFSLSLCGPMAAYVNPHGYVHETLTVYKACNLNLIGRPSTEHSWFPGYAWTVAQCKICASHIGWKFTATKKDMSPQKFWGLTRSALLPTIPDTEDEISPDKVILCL
The target in experiment [2] is Protein cereblon/Bromodomain-containing protein 4 (Homo sapiens) (UniProt O60885+Q96SW2). The experiment can be described thus: Protac activity at Cereblon/BRD4 in human MV411 cells assessed as induction of BRD4 protein degradation at 1 uM incubated for 18 hrs by immunoblot analysis relative to control.
Experiment [3] deals with T2, von Hippel-Lindau disease tumor suppressor/Bromodomain-containing protein 4 (Homo sapiens, UniProt O60885+P40337). Briefly: Protac activity at VHL/BRD4 in human HeLa cells assessed as induction of BRD4 protein degradation at 50 nM up to 36 hrs by Western blot analysis relative to control.
In experiment [4] the target is T1, Protein cereblon/Cyclin-dependent kinase 9. The experiment can be described thus: Protac activity at CRBN/CDK9 in human HCT116 cells assessed as induction of CDK9 protein degradation at 20 uM after 6 hrs by Western blot analysis relative to control.
Target sequence in this assay (P50750 whole entry, looked up): as the sequence (P50750 whole entry) above
Target sequence in this assay (Q96SW2 whole entry, looked up): as the sequence (Q96SW2 whole entry) above
Experiment [5] deals with T2, von Hippel-Lindau disease tumor suppressor/Bromodomain-containing protein 4. The experiment can be described thus: Protac activity at VHL/BRD4 short isoform in human HeLa cells assessed as induction of BRD4 short isoform degradation incubated for 24 hrs by Western blot analysis.
For experiment [6] the target is unchanged. Briefly: Protac activity at VHL/BRD4 short isoform in human HeLa cells assessed as induction of BRD4 short isoform degradation incubated for 24 hrs by Western blot analysis relative to control.
Experiment [7] addresses Protein cereblon/Histone acetyltransferase KAT2A (Homo sapiens) (UniProt Q92830+Q96SW2). The experiment can be described thus: Protac activity at CRBN/GCN5 in human THP1 cells assessed as induction of GCN5 protein degradation at 1 nM incubated for 18 hrs by Western blot analysis relative to control.
Experiment [8] has as its target Protein cereblon/Histone acetyltransferase KAT2B (Homo sapiens) (UniProt Q92831+Q96SW2). The experiment can be described thus: Protac activity at CRBN/PCAF in human THP1 cells assessed as induction of PCAF protein degradation incubated for 18 hrs by Western blot analysis relative to control.
Experiment [9] addresses von Hippel-Lindau disease tumor suppressor/Bromodomain-containing protein 2 (Homo sapiens, UniProt P25440+P40337). Briefly: Protac activity at VHL/BRD2 in human 22Rv1 cells assessed as induction of BRD2 protein degradation incubated for 16 hrs by Western blot analysis.
The target in experiment [10] is T2, von Hippel-Lindau disease tumor suppressor/Bromodomain-containing protein 4. Briefly: Protac activity at VHL/BRD4 in human 22Rv1 cells assessed as induction of BRD4 protein degradation incubated for 16 hrs by Western blot analysis relative to control.
The target of experiment [11] is T3, E3 ubiquitin-protein ligase XIAP/Tyrosine-protein kinase ABL1/Breakpoint cluster region protein (Homo sapiens, UniProt P00519+P98170+P11274). Briefly: Protac activity at BCR-ABL/XIAP in human K562 cells assessed as induction of ABL protein degradation after 6 hrs by Western blot analysis.
The target of experiment [12] is T3, E3 ubiquitin-protein ligase XIAP/Tyrosine-protein kinase ABL1/Breakpoint cluster region protein. Briefly: Protac activity at BCR-ABL/XIAP in human K562 cells assessed as induction of ABL protein degradation at 100 nM after 6 hrs by Western blot analysis relative to control.
The target of experiment [13] is T4, Protein cereblon/Tyrosine-protein kinase BTK (Homo sapiens, UniProt Q06187+Q96SW2). Briefly: Protac activity at CRBN/BTK in human Ramos cells assessed as induction of BTK protein degradation incubated for 24 hrs by Western blot analysis.
The target in experiment [14] is T4, Protein cereblon/Tyrosine-protein kinase BTK. The experiment can be described thus: Protac activity at CRBN/BTK in human Ramos cells assessed as induction of BTK protein degradation at 300 nM incubated for 24 hrs by Western blot analysis relative to control.
Target sequence in this assay (Q06187 2-659 limits assumed): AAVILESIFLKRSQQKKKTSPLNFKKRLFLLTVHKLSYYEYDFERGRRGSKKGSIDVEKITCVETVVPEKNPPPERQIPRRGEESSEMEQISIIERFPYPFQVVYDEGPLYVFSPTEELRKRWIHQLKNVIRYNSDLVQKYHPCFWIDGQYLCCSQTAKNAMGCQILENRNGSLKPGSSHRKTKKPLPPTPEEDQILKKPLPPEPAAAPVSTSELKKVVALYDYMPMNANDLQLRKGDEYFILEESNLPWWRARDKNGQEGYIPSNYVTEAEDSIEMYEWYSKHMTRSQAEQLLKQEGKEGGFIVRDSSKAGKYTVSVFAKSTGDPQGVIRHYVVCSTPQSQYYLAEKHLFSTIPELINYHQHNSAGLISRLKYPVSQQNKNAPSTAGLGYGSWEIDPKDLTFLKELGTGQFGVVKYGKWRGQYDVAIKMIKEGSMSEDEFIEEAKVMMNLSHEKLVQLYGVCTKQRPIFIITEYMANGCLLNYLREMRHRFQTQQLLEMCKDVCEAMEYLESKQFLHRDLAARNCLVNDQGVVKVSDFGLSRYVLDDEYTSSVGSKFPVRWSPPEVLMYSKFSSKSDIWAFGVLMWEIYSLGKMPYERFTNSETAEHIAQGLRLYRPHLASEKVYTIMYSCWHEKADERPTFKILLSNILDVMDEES
Target sequence in this assay (Q96SW2 whole entry partner): as the sequence (Q96SW2 whole entry) above
The nature of experiment [15]: Protac activity at CRBN/FKBP12 F36V mutant (unknown origin) expressed in human 293FT cells assessed as induction of FKBP12 F36V mutant protein degradation incubated for 4 hrs by Western blot analysis.
The species entered for experiment [16] is Homo sapiens. Briefly: Protac activity at CRBN/FKBP12 F36V mutant (unknown origin) expressed in human 293FT cells assessed as induction of FKBP12 F36V mutant protein degradation incubated for 4 hrs by Western blot analysis relative to control.

T2 sequence (P40337 whole entry, looked up, other chains not shown): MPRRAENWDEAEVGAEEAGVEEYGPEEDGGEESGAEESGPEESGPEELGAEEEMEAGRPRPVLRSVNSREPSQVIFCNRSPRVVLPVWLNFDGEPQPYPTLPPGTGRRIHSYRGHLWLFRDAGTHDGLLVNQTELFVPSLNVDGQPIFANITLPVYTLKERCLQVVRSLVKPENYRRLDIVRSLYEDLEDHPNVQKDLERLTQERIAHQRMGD
von Hippel-Lindau disease tumor suppressor/Bromodomain-containing protein 2, sequence (P25440 whole entry): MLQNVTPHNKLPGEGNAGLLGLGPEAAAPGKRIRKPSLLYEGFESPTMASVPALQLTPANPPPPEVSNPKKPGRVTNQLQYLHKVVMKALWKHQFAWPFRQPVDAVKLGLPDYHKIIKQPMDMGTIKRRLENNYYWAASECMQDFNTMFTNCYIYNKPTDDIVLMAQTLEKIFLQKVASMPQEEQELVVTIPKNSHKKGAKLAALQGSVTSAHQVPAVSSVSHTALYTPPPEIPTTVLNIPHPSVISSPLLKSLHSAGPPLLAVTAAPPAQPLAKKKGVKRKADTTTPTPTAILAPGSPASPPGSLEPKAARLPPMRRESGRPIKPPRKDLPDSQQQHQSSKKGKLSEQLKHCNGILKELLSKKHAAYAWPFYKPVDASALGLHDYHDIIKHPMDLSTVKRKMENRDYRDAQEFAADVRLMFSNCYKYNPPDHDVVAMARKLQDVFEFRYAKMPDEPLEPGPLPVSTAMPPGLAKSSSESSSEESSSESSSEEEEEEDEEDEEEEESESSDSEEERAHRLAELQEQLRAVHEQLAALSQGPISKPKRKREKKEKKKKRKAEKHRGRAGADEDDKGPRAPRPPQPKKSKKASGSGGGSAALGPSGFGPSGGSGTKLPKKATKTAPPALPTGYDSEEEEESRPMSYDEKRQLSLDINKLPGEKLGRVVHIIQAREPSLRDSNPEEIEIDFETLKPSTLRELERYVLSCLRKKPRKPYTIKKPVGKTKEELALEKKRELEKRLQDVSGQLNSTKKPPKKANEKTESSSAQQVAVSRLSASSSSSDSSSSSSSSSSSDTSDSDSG
von Hippel-Lindau disease tumor suppressor/Bromodomain-containing protein 2, sequence (P40337 whole entry): as the sequence (P40337 whole entry, looked up, other chains not shown) above
Protein cereblon/Histone acetyltransferase KAT2A (Homo sapiens), sequence (Q92830 2-837 limits assumed): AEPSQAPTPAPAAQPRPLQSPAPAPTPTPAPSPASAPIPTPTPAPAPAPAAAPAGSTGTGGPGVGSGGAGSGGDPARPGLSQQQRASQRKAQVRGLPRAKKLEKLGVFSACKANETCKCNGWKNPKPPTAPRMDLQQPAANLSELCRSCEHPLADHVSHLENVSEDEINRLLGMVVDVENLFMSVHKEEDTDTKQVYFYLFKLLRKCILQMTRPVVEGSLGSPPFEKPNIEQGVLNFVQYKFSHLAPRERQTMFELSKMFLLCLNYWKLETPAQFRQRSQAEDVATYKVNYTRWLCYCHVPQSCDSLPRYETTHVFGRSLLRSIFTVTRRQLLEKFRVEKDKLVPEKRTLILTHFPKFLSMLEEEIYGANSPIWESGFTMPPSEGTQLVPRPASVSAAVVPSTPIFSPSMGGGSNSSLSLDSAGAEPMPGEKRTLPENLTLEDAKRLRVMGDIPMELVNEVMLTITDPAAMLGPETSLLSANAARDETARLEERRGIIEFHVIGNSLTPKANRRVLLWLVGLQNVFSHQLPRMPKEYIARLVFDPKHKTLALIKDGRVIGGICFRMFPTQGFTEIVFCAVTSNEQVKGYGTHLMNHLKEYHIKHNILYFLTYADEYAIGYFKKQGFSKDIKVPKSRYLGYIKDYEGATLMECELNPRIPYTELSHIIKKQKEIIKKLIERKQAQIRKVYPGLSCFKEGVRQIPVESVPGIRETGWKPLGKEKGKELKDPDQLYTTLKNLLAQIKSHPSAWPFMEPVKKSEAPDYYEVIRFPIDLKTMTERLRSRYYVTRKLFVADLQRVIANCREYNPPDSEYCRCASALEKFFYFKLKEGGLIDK
Protein cereblon/Histone acetyltransferase KAT2A (Homo sapiens), sequence (Q96SW2 whole entry partner): as the sequence (Q96SW2 whole entry) above
Protein cereblon/Histone acetyltransferase KAT2B (Homo sapiens), sequence (Q92831 whole entry, looked up): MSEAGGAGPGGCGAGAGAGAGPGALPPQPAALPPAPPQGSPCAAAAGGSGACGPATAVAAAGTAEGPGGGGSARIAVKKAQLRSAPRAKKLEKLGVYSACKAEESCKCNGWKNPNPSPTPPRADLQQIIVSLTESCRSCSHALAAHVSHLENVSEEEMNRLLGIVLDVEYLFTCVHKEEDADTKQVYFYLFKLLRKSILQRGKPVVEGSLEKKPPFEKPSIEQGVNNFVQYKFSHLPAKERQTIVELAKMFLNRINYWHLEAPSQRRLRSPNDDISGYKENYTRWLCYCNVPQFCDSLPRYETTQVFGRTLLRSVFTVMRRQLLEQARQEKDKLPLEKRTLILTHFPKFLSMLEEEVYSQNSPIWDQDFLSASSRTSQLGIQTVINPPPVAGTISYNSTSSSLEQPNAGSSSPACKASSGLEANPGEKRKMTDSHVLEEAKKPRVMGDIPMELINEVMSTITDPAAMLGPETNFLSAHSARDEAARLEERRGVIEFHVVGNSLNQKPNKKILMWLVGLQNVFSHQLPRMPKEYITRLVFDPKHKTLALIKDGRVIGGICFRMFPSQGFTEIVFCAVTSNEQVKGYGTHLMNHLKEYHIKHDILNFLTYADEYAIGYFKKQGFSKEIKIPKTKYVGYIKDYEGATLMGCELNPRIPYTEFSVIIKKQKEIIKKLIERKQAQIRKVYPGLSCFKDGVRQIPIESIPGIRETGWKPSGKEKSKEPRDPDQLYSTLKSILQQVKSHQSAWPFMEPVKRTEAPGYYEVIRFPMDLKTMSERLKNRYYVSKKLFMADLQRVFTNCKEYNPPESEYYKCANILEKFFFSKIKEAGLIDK
Protein cereblon/Histone acetyltransferase KAT2B (Homo sapiens), sequence (Q96SW2 whole entry, looked up): as the sequence (Q96SW2 whole entry) above
Protein cereblon/Bromodomain-containing protein 4 (Homo sapiens), sequence (Q96SW2 whole entry, looked up, other chains not shown): as the sequence (Q96SW2 whole entry) above

Consider `O=C1CCC(N2C(=O)c3cccc(OCCCCCOc4ccc(CC(=O)Nc5cc(C6CCC6)n[nH]5)cc4)c3C2=O)C(=O)N1` (stereo unspecified), for which the DC50 in experiment [1] was 10000 nM.
Consider `Cc1sc2c(c1C)C(c1ccc(Cl)cc1)=N[C@@H](CC(=O)NCCCCNC(=O)COc1cccc3c1C(=O)N(C1CCC(=O)NC1=O)C3=O)c1nnc(C)n1-2` (stereo partly specified), for which the Emax in experiment [2] was determined as 95%.
On to `Cc1ncsc1-c1ccc(CNC(=O)[C@@H]2C[C@@H](O)CN2C(=O)[C@@H](NC(=O)COCCOCCOCCNC(=O)C[C@@H]2N=C(c3ccc(Cl)cc3)c3c(sc(C)c3C)-n3c(C)nnc32)C(C)(C)C)cc1`, for which the Emax in experiment [3] is greater than 96%.
On to `O=C1CCC(N2C(=O)c3cccc(OCCCCCOc4ccc(CC(=O)Nc5cc(C6CCC6)[nH]n5)cc4)c3C2=O)C(=O)N1` (stereo unspecified), for which the Emax in [4] is greater than 65%.
Regarding `CC(=O)N[C@H](C(=O)N1C[C@H](O)C[C@H]1C(=O)NCc1ccc(-c2scnc2C)cc1)C(C)(C)SCCCCCCNC(=O)C[C@@H]1N=C(c2ccc(Cl)cc2)c2c(sc(C)c2C)-n2c(C)nnc21`, the DC50 in experiment [5] was in the range of 10 to 100 nM. In addition, the Emax in experiment [6] was greater than 90%.
As to `CN1C[C@H](Nc2cnn(C)c(=O)c2Br)C[C@H](c2ccc(C(=O)N(C)CCCN(C)c3ccc(CCCOc4cccc5c4C(=O)N(C4CCC(=O)NC4=O)C5=O)cc3)cc2)C1` (stereo partly specified), the values for the Emax in experiment [7] and in experiment [8] were 81% and 97%, respectively.
With `Cc1ncsc1-c1ccc([C@H](C)NC(=O)[C@@H]2C[C@@H](O)CN2C(=O)[C@@H](NC(=O)COCCCOCCNC(=O)C[C@@H]2N=C(c3ccc(Cl)cc3)c3c(sc(C)c3C)-n3c(C)nnc32)C(C)(C)C)cc1`, the DC50 in experiment [9] was less than 5 nM. For the same compound, the Emax in experiment [10] was greater than 99%.
With `CN[C@@H](C)C(=O)N[C@H](C(=O)N1CCC[C@H]1c1nc(C(=O)c2cccc(OCCOCCOCCOCC(=O)N3CCN(c4cc(Nc5ncc(C(=O)Nc6c(C)cccc6Cl)s5)nc(C)n4)CC3)c2)cs1)C1CCCCC1`, the DC50 in experiment [11] is 3 to 10 nM. In addition, in experiment [12], the Emax is greater than 90%.
On to `NC(=O)c1c(-c2ccc(Oc3ccc(F)cc3F)cc2)nn([C@@H]2CCCN(C(=O)OCCOCCOCCOCCOCCOCCNc3cccc4c3C(=O)N(C3CCC(=O)NC3=O)C4=O)C2)c1N` (stereo partly specified), for which the DC50 in experiment [13] amounted to 1.1 nM. Moreover, the Emax in experiment [14] stood at 87%.
Take `CC[C@H](C(=O)N1CCCC[C@H]1C(=O)O[C@H](CCc1ccc(OC)c(OC)c1)c1ccccc1OCC(=O)NCCCCCCOc1cccc2c1C(=O)N(C1CCC(=O)NC1=O)C2=O)c1cc(OC)c(OC)c(OC)c1` (stereo partly specified): in [15], the DC50 is less than 100 nM. Also, the Emax in [16] was 82%.

The term DC50 denotes the concentration giving 50% degradation. As a reminder, the Emax is the greatest response seen or fitted, relative to the assay's reference.
